Experimental findings from US5256671A, “Azabicyclic compounds, pharmaceutical compositions containing them and their use in therapy” (Merck Sharp & Dohme, Limited, priority 1992, dated 1993) are described below.

Where a name gives a salt, the structure may show the parent alone.

As a reminder, the IC50 is the concentration that gives 50% inhibition.

One assay deals with T1, human neurokinin-1-receptor (NK1R) (Homo sapiens, UniProt P25103).
T1 construct: expressed in transfected cells
T1 sequence (P25103 whole entry): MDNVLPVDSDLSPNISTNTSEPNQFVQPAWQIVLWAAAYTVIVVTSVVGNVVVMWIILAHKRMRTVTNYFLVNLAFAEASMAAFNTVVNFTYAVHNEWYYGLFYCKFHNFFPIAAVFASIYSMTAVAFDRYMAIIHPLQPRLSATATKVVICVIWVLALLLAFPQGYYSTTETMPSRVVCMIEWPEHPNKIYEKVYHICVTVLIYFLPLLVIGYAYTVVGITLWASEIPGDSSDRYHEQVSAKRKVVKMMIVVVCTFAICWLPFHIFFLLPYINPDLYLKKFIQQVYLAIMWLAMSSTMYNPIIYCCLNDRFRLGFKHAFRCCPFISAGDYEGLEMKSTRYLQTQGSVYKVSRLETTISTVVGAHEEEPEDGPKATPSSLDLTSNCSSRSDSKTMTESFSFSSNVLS
Description: Substance P antagonism assay: 125I-substance P binding to human NK1R expressed in COS or CHO cells. As to conditions: 125I-SP displacement, read-out: IC50 @ NK1R. The method, then:
To express the cloned human neurokinin-1-receptor (NK1R) transiently in COS, the cDNA for the human NK1R was cloned into the expression vector pCDM9 which was derived from pCDM8 (INVITROGEN) by inserting the ampicillin resistance gene (nucleotide 1973 to 2964 from BLUESCRIPT SK+ (trademark, STRATAGENE, La Jolla, Calif., USA)) into the Sac II site. Transfection of 20 ug of the plasmid DNA into 10 million COS cells was achieved by electroporation in 800 μl of transfection buffer (135 mM NaCl, 1.2 mM CaCl2, 1.2 mM MgCl2, 2.4 mM K2 HPO4, 0.6 mM KH2 PO4, 10 mM glucose, 10 mM N-2-hydroxyethyl-piperazine-N'-2-ethane […] (HEPES) pH 7.4) at 260 V and 950 μF using the IBI GENEZAPPER (trademark IBI, New Haven, Conn., USA). The cells were incubated in 10% fetal calf serum, 2 mM glutamine, 100 U/ml penicillin-streptomycin, and 90% DMEM media (GIBCO, Grand Island, N.Y., USA) in 5% CO2 at 37° C. for three days before the binding assay.
To establish a stable cell line expressing cloned human […], the cDNA was subcloned into the vector pRcCMV (INVITROGEN). Transfection of 20 ug of the plasmid DNA into CHO cells was achieved by electroporation in 800 μl of transfection buffer supplemented with 0.625 mg/ml Herring sperm DNA at 300 V and 950 μF using the IBI GENEZAPPER (IBI). The transfected cells were incubated in CHO media [10% fetal calf serum, 100 U/ml penicillin-streptomycin, 2 mM glutamine, 1/500 hypoxanthine-thymidine (ATCC), 90% IMDM media (JRH BIOSCIENCES, Lenexa, Kans. USA), 0.7 mg/ml G418 (GIBCO)] in 5% CO2 at 37° C. until colonies were visible. Each colony was separated and propagated. The cell clone with the highest number of human NK1R was selected for subsequent applications such as drug screening.
The binding assay of human NK1R expressed in either COS or CHO cells is based on the use of ^125 I-substance P (^125 I-SP, from DU PONT, Boston, Mass.) as a radioactively labeled ligand which competes with unlabeled substance P or any other ligand for binding to the human NK1R. Monolayer cell cultures of COS or CHO were dissociated by the non-enzymatic solution (SPECIALTY MEDIA, Lavellette, N.J.) and resuspended in appropriate volume of the binding buffer (50 mM Tris pH 7.5, 5 mM MnCl2, 150 mM NaCl, 0.04 mg/ml bacitracin, 0.004 mg/ml leupeptin, 0.2 mg/ml BSA, 0.01 mM phosphoramidon) such that 200 μl of the cell suspension would give rise to about 10,000 cpm of specific ^125 I-SP binding (approximately 50,000 to 200,000 cells). In the binding assay, 200 μl of cells were added to a tube containing 20 μl of 1.5 to 2.5 nM of ^125 I-SP and 20 μl of unlabeled substance P or any other test compound. The tubes were incubated at 4° C. or at room temperature for 1 hour with gentle shaking. The bound radioactivity was separated from unbound radioactivity by GF/C filter (BRANDEL, Gaithersburg, Md.) which was pre-wetted with 0.1% polyethylenimine. The filter was washed with 3 ml of wash buffer (50 mM Tris pH 7.5, 5 mM MnCl2, 150 mM NaCl) three times and its radioactivity was determined by gamma counter.
For `O=C(C=C1C2CCN(CC2)C1C(c1ccccc1)c1ccccc1)c1cc(C(F)(F)F)cc(C(F)(F)F)c1` (stereo not drawn) [Example 7, E-3-[Methylene(3,5-bistrifluoromethylphenyl)oxo]-2-benzhydryl quinuclidine], the IC50 was > 300 nM.
As for `FC(C=C1C2CCN(CC2)C1C(c1ccccc1)c1ccccc1)c1cc(C(F)(F)F)cc(C(F)(F)F)c1` (single isomer, unassigned; isomer b) [Example 11, E-3-[Methylene-2-(3,5-bistrifluoromethyl)fluoromethyl]-2-benzhydrylquinuclidine (Isomer B)], the concentration for half-maximal inhibition (IC50) came out at 9 nM.
As for `Cc1cc(C)cc(C(=O)C=C2C3CCN(CC3)C2C(c2ccccc2)c2ccccc2)c1` (stereo not drawn) [Example 12, E-3-[Methylene-2-keto(3,5-dimethyl)phenyl]-2-benzhydryl quinuclidine], the IC50 came to 140 nM.
Still for that read-out and setting: next, `OC(C=C1C2CCN(CC2)C1C(c1ccccc1)c1ccccc1)c1ccccc1` (single isomer, unassigned) [4 (ISOMER B), E-3-[Methylene(hydroxymethyl)phenyl]-2-benzhydryl quinuclidine]: 200 nM; `FC(F)(F)c1cccc(CC=C2C3CCN(CC3)C2C(c2ccccc2)c2ccccc2)c1` (stereo not drawn) [Example 6, E-3-[Methylene(3-trifluoromethyl)benzyl]-2-benzhydryl quinuclidine]: 100 nM.
In the case of `OC(C=C1C2CCN(CC2)C1Cc1ccccc1)c1cc(C(F)(F)F)cc(C(F)(F)F)c1` (single isomer, unassigned) [15 (DIASTEREOMER A), E-3-[Methylene-(3,5-bistrifluoromethylphenyl)hydroxymethyl]-2-benzyl quinuclidine], the IC50 was 63 nM.
In the case of `FC(C=C1C2CCN(CC2)C1C(c1ccccc1)c1ccccc1)c1cc(C(F)(F)F)cc(C(F)(F)F)c1` (single isomer, unassigned; isomer a) [Example 10, E-3-[Methylene-2-(3,5-bistrifluoromethyl)fluoromethyl]-2-benzhydrylquinuclidine (Isomer A) oxalate salt], the IC50 came out at 5 nM.
Take `O=C(C=C1C2CCN(CC2)C1C(c1ccccc1)c1ccccc1)c1ccccc1` (stereo not drawn) [Example 8, E-3-[Methyleneketophenyl]-2-benzhydrylquinuclidine]: the IC50 came out at 190 nM.
The same measure, in the same setting: to `OC(C=C1C2CCN(CC2)C1C(c1ccccc1)c1ccccc1)c1cc(C(F)(F)F)cc(C(F)(F)F)c1` (single isomer, unassigned) [9 (ISOMER A), E-3-[Methylene-2-(3,5-bistrifluoromethyl)hydroxymethyl]-2-benzhydrylquinuclidine] belongs 0.9 nM.
Regarding `Cc1cccc(C)c1C(O)C=C1C2CCN(CC2)C1C(c1ccccc1)c1ccccc1` (stereo not drawn) [Example 14, E[3-Methylene(2,6-dimethylphenyl)hydroxymethyl]-2-benzhydryl quinuclidine], the IC50 was 90 nM.
For the compound `OC(C=C1C2CCN(CC2)C1Cc1ccccc1)c1cc(C(F)(F)F)cc(C(F)(F)F)c1` (single isomer, unassigned) [15 (DIASTEREOMER B), E-3-[Methylene-(3,5-bistrifluoromethylphenyl)hydroxymethyl]-2-benzyl quinuclidine], the concentration for half-maximal inhibition (IC50) was 6 nM.

The same assay, now with this note: IC50 @ NK1R, 125I-SP displacement.
In turn, `Cc1cc(C)cc(C(O)C=C2C3CCN(CC3)C2C(c2ccccc2)c2ccccc2)c1` (stereo not drawn) [Example 13, E-[3-Methylene(3,5-dimethylphenyl)hydroxymethyl]-2-benzhydryl quinuclidine] had an IC50 of 13 nM.
The same measure, in the same setting: next, `COc1ccccc1C(O)C=C1C2CCN(CC2)C1C(c1ccccc1)c1ccccc1` (single isomer, unassigned) [1 (ISOMER B)]: 130 nM.
On to `OC(C=C1C2CCN(CC2)C1C(c1ccccc1)c1ccccc1)c1cccc(C(F)(F)F)c1` (single isomer, unassigned) [3 (ISOMER A), E-3-[Methylene(3-trifluoromethylphenyl)hydroxymethyl]-2-benzyhydryl quinuclidine], for which the concentration for half-maximal inhibition (IC50) is 30 nM.
`OC(C=C1C2CCN(CC2)C1C(c1ccccc1)c1ccccc1)c1ccc(F)cc1` (single isomer, unassigned) [2 (ISOMER B), E-[3-[Methylene(4-fluorophenyl)hydroxymethyl]-2-benzhydryl)quinuclidine] showed an IC50 of 197 nM.
On to `COc1ccccc1C(O)C=C1C2CCN(CC2)C1C(c1ccccc1)c1ccccc1` (single isomer, unassigned) [1 (ISOMER A)], for which the IC50 worked out at 50 nM.
As to `C(Cc1ccccc1)=C1C2CCN(CC2)C1C(c1ccccc1)c1ccccc1` (stereo not drawn) [Example 5, E-3-[Methylenebenzyl]-2-benzhydryl quinuclidine], the IC50 was determined as 170 nM.
`OC(C=C1C2CCN(CC2)C1C(c1ccccc1)c1ccccc1)c1cccc(C(F)(F)F)c1` (single isomer, unassigned) [3 (ISOMER B), E-3-[Methylene(3-trifluoromethylphenyl)hydroxymethyl]-2-benzyhydryl quinuclidine] had an IC50 of 110 nM.
